pIC50: −log10 of the molar value. Where two headings read alike, the source gives them in different places.
How the values were obtained:
pY705-STAT3 in PBMC = biological target: T1, pY705-STAT3 in PBMC (Homo sapiens, UniProt P40763); test: MSD-pSTAT-PBMC Assay (pSTAT3, IL-6 stimulated); type: cell-based; conditions: compound 3 hrs, then 10 ng/mL IL-6 for 10 min
T1 construct: Cryopreserved Peripheral Blood Mononuclear Cells (PBMC) are from AllCells; host or cells: cryopreserved PBMC
Method in brief: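 Inhibition of cytokine-induced STAT phosphorylation was measured in recovered human PBMC after 3 hrs compound exposure and a 10 min IL-4 (1 ng/mL) or IL-6 (10 ng/mL) challenge. MSD detection of pY641-STAT6 or pY705-STAT3 yielded IC50 values.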

pY641-STAT6 in PBMC = biological target: T2, pY641-STAT6 in PBMC (Homo sapiens, UniProt P42226); test: MSD-pSTAT-PBMC Assay (pSTAT6, IL-4 stimulated); type: cell-based; conditions: compound 3 hrs, then 1 ng/mL IL-4 for 10 min
T2 construct: Cryopreserved Peripheral Blood Mononuclear Cells (PBMC) are from AllCells; host or cells: cryopreserved PBMC
T2 sequence (P42226 1-847): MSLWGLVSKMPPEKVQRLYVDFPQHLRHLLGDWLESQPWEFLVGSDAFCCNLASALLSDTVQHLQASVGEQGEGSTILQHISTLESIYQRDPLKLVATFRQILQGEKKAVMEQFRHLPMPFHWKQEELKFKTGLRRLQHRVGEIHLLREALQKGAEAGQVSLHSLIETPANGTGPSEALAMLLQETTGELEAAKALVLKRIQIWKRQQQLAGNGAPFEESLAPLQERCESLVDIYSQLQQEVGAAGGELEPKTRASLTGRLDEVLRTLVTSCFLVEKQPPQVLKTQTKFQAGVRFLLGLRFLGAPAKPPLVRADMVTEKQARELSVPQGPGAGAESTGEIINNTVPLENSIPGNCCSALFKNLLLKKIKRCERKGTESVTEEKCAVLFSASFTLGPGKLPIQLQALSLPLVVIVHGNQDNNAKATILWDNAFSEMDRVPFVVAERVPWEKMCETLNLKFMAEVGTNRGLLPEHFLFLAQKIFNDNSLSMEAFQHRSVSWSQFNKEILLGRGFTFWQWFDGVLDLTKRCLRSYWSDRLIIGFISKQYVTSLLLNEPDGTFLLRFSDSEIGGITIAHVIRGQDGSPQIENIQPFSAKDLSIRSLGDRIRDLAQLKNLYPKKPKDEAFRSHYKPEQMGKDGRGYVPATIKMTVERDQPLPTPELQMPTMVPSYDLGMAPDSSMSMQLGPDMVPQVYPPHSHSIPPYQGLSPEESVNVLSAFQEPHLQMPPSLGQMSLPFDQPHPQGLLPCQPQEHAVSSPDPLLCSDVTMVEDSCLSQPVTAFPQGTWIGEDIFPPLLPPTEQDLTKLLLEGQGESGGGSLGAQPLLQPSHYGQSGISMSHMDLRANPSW
Method in brief: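 MSD electrochemiluminescence read-out: total STAT captured, probed with anti-pY641-STAT6 or anti-pY705-STAT3. Human PBMC, 3 h compound pretreatment, 10 min stimulation (IL-4 1 ng/mL or IL-6 10 ng/mL). Unstimulated signal subtracted, DMSO-normalized, variable-slope IC50.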

[1] = PBMC, Table 1114, read-out: pSTAT3
[2] = PBMC, Table 1114, read-out: pSTAT6
[3] = PBMC, Table 115, read-out: STAT3
[4] = PBMC, Table 115, read-out: STAT6

T1 sequence (P40763 whole entry): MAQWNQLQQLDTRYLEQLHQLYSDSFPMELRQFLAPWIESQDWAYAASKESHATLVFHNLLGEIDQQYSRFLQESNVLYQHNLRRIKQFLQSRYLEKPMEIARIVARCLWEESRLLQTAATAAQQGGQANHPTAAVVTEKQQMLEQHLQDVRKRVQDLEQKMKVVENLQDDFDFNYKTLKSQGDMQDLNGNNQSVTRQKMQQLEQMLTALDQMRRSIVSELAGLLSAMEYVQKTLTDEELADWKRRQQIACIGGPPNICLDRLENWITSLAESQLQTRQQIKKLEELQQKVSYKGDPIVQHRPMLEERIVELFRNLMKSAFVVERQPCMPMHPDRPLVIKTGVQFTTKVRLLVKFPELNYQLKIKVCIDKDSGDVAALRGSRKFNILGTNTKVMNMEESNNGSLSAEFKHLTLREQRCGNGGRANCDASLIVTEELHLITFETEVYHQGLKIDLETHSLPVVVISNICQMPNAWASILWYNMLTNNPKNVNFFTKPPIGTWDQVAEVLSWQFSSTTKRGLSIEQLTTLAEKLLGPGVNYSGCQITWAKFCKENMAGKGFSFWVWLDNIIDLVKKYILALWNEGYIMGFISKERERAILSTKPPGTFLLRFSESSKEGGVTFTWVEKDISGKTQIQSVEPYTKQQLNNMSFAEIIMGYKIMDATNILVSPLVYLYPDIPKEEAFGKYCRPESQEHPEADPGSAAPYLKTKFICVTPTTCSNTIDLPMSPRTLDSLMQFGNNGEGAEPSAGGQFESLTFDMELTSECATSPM

pIC50 (pY705-STAT3 in PBMC; [3])	pIC50 (pY641-STAT6 in PBMC; [4])	Compound	other results
–	–	S-(2-((((2- (((3S,6S,10aS)-3- ((3S,4R or 3R,4S)-3- cyano-4- phenylpyrrolidine-1- carbonyl)-5- oxodecahydro- pyrrolo[1,2-a] azocin-6- yl)carbamoyl) benzo[b]thiophen- 5-yl)difluoromethyl) (2-(pivaloylthio) ethoxy)phosphoryl) oxy)ethyl) butanethioate [Compound 165]	pIC50 (pY705-STAT3 in PBMC; [1]): 5.52 to 6.00; pIC50 (pY641-STAT6 in PBMC; [2]): 6.00 to 7.00
> 7.00	6.00 to 7.00	COCC(=O)SCCOP(=O)(OCCSC(=O)COC)C(F)(F)c1ccc2sc(C(=O)N[C@H]3CCC[C@H]4CC[C@@H](C(=O)N5CC(c6cccnc6)C5)N4C3=O)cc2c1 [Compound 1011, S,S′-((((difluoro(2-(((3S,6S,9aS)-5-oxo-3-(3-(pyridin-3-yl)azetidine-1-carbonyl)octahydro-1H-pyrrolo[1,2-a]azepin-6-yl)carbamoyl)benzo [b]thiophen-5-yl)methyl)phosphoryl)bis(oxy))bis(ethane-2,1-diyl)) bis(2-methoxyethanethioate)]	–
6.00 to 7.00	> 7.00	CC(C)OC(=O)OCOP(=O)(OCOC(=O)OC(C)C)C(F)(F)c1ccc2ccc(C(=O)N[C@H]3CCCC[C@H]4CC[C@@H](C(=O)N5C[C@H](c6cc[nH]c(=O)c6)[C@@H](C#N)C5)N4C3=O)cc2c1 (single isomer, unassigned) [Compound 1087]	–
–	–	CC(C)CC(=O)SCCOP(=O)(OCCSC(=O)CC(C)C)C(F)(F)c1ccc2sc(C(=O)N[C@H]3CCC[C@H]4CC[C@@H](C(=O)N5CC(c6cccnc6)C5)N4C3=O)cc2c1 [Compound 177, S,S′-((((difluoro(2-(((3S,6S,9aS)-5-oxo-3-(3-(pyridin-3-yl)azetidine-1-carbonyl)octahydro-1H-pyrrolo[1,2-a]azepin-6-yl)carbamoyl)benzo[b]thiophen-5-yl)methyl)phosphoryl)bis(oxy))bis(ethane-2,1-diyl)) bis(3-methylbutane thioate)]	pIC50 (pY705-STAT3 in PBMC; [1]): > 7.00; pIC50 (pY641-STAT6 in PBMC; [2]): 5.52 to 6.00
–	–	CCCC(=O)SCCOP(=O)(Oc1ccccc1)C(F)(F)c1ccc2sc(C(=O)N[C@H]3CCC[C@H]4CC[C@@H](C(=O)N5CC(c6cccnc6)C5)N4C3=O)cc2c1 (stereo partly drawn) [Compound 136, S-(2-(((difluoro(2-(((3S,6S,9aS)-5-oxo-3-(3-(pyridin-3-yl)azetidine-1-carbonyl)octahydro-1H-pyrrolo[1,2-a]azepin-6-yl)carbamoyl)benzo[b]thiophen-5-yl)methyl) (phenoxy)phosphoryl)oxy)ethyl) butanethioate]	pIC50 (pY705-STAT3 in PBMC; pSTAT3, PBMC, Table 1114): > 7.00; pIC50 (pY641-STAT6 in PBMC; pSTAT6, PBMC, Table 1114): 5.52 to 6.00
6.00 to 7.00	> 7.00	CC(C)CC(=O)SCCOP(=O)(OCOC(=O)OC(C)C)C(F)(F)c1ccc2ccc(C(=O)N[C@H]3CCCC[C@H]4CC[C@@H](C(=O)N5C[C@H](c6cc[nH]c(=O)c6)[C@@H](C#N)C5)N4C3=O)cc2c1 (single isomer, unassigned) [Compound 1100]	–

Compound	pIC50 (pY705-STAT3 in PBMC; [3])	pIC50 (pY641-STAT6 in PBMC; [4])	other results
CCOC(=O)[C@H](C)NP(=O)(Cc1ccc2ccc(C(=O)N[C@H]3CCCC[C@H]4CC[C@@H](C(=O)N5CC(c6ccccc6)CC56CC6)N4C3=O)cc2c1)Oc1ccccc1 (stereo partly drawn) [Compound 396, ethyl (((7-(((3S,6S,10aS)-5-oxo-3-(6-phenyl-4-azaspiro[2.4]heptane-4-carbonyl)decahydropyrrolo[1,2-a]azocin-6-yl)carbamoyl)naphthalen-2-yl)methyl)(phenoxy)phosphoryl)-L-alaninate]	< 5.52	–	pIC50 (pY641-STAT6 in PBMC; STAT6, PBMC, Table 115): 5.52 to 6.00

— patent US20250215029A1 (Recludix Pharma, Inc., priority 2022, published 2025)
